Experimental data published in paper PMC9688225, “α-Lipoic Acid Derivatives as Allosteric Modulators for Targeting AMPA-Type Glutamate Receptors’ Gating Modules” (Cells, 2022).
Read-outs that look alike come from different tables or passages of the source.

Assays:
Assay type in all cases: cell-based
[1] = system: AMPA receptor subunits (GluA1, GluA2, GluA1/2, GluA2/3); experiment: Whole-cell patch-clamp electrophysiology, summary over the AMPA receptor subunits in HEK293 cells; conditions: for decrease in the peak current of the AMPARs / increase of the rate of AMPA receptor deactivation (τw deact) / reduction in the rate of desensitization (τw des): all AMPA receptor subunits, 12 µM compound; for IC50: over GluA1, GluA1/2, GluA2, GluA2/3, read-out: approximate IC50 against AMPA receptor subunits
Description: (§1) Up to 20 μg of high-copy plasmid DNA was prepared using the QIAGEN Plasmid Mini Kit, the tubes were then centrifuged to extract the supernatant containing the plasmid DNA, ethanol was used to wash the DNA pellet, then centrifuged again and the supernatant was carefully removed as to not disturb the pellet, finally, the pellet was air-dried, and the DNA was re-dissolved in a suitable volume of buffer, (our prior study detailed the whole DNA preparation data). The flip isoform was used in all AMPAR subunits used in this investigation. AMPAR subunits were subcloned in pRK and expressed in the human embryonic kidney cells (HEK293) (The HEK293 cell line was obtained from Sigma, Schnelldorf, Germany). IPA (Integrated Patch Amplifier) recorded HEK293 cells 36–48 h after transfection using the patch-clamp method (Sutter Instruments, Novato, CA, USA). A high-speed piezo solution switcher was installed on a double-barreled glass (theta tube) to provide solutions fast, isolate receptor responses from any network influences, and preserve, as much as possible, the postsynaptic protein machinery. Thus, inhibition was measured by comparing the current recorded when glutamate alone was administered to the current observed when glutamate plus the compound of interest was delivered to the same cell. Before administering the α-LA compounds, experiments were conducted to determine the appropriate concentration to be delivered to the cells without harming them. Dichloromethane (12 µM) effect on GluA1 and GluA2 subunits was tested to ensure that it had no effect on AMPA receptor currents (Figure S8). The effect of α-LA compounds on AMPA subunits plateaued at a concentration of 12 µM because LA inhibits AMPA receptors at low concentrations and continues to inhibit them when LA concentrations are increased by 2 µM each interval, as shown in Figure S1. The concentration increased by 2 µM each time to ensure that no cells were harmed. The cells were washed for 20 s between α-LA derivatives (12 µM), and 10 mM glutamate was supplied alone after each α-LA compound to ensure cell health. Data analysis was carried out using Igor Pro7 (Wave Metrics, inc). For both desensitization (τw des) and deactivation rates (τw deact), an exponential fit to the current decline was obtained at 95% of peak to baseline current. The weighted tau (τw) was calculated as τw = (τf × af) + (τs × as), where af and as are the amplitudes of the fast (τf) and slow (τs) exponential components, respectively. Our study detailed the experimental data set.
(§2) Data are presented as mean ± standard error of the mean (SEM). The number of samples (n = 10) refers to the total number of tested HEK293 cells. Statistical differences between the groups and the wild type were examined by One Way Analysis of Variance (ANOVA), with values of p < 0.05 being considered to indicate statistical significance: (*) p < 0.05, (**) p < 0.01, (***) p < 0.001, ns, not significant. Concentration-response relationships were fitted as composite curves using GraphPad Prism version 6.01 (GraphPad Software, San Diego, CA, USA) to the Hill equation. All results were representative of at least three independent experiments.
The levels of inhibition of α-LA and its derivatives attracted our attention to assessing the potency of the compounds in a concentration-dependent manner. […] The concentration−inhibition curves were produced by administering glutamate alone at a concentration of 10 mM, followed by glutamate + α-LA derivatives at varying concentrations (in μM) for every recording point. Afterward, the cells were normalized back by administering glutamate alone. Since the glutamate concentration in the synaptic cleft constantly saturates the receptors, driving the response to a near maximum level, variability occurs because the maximum level changes. […]

[2] = target: T1, GluA2 AMPA receptor subunit (flip isoform) (Homo sapiens, UniProt P42262); experiment: Whole-cell patch-clamp electrophysiology, homomeric GluA2 expressed in HEK293 cells; conditions: for Amplitude (glutamate + compound): 10 mM glutamate + 12 µM compound, −60 mV, pH 7.4, 22 °C, mean ± SEM; for Amplitude (glutamate + compound) / A/AI (current with glutamate alone / current with glutamate + compound): n = 10; for A/AI (current with glutamate alone / current with glutamate + compound): 10 mM glutamate, 12 µM compound; for IC50: Hill fit; for t deact (weighted deactivation time constant) / t des (weighted desensitization time constant): glutamate + 12 µM compound; for t deact (weighted deactivation time constant): glutamate alone 2.4±0.1 ms; for t des (weighted desensitization time constant): glutamate alone 2.6±0.1 ms
T1 construct: expressed in transfected cells; host or cells: HEK293
Description: as §1, §2
(§3) Figure 2 Suppression of AMPA receptor currents by α-LA compounds. Graphs (a,c,e,g) present AMPA receptor currents (pA) before and after the administration of α-LA derivatives on GluA1, GluA1/2, GluA2, and GluA2/3 subunits. While (b,d,f,h) present the ratio A/AI, where A represents the current caused by 10 mM glutamate alone and AI represents the current induced by glutamate + α-LA (12 µM). The whole-cell current was measured at −60 mV, pH 7.4, and 22 °C. A one way analysis of variance (ANOVA) was performed for comparison: *** p < 0.001; ns, not significant. Ten cells were investigated for each LA compound. All values are shown as mean SEM.
(§4) Figure 3 The potency of LA compounds against AMPA receptor subunits. […]

[3] = target: T2, GluA1 AMPA receptor subunit (flip isoform) (Homo sapiens, UniProt P42261); experiment: Whole-cell patch-clamp electrophysiology, homomeric GluA1 expressed in HEK293 cells; conditions: for Amplitude (glutamate + compound): 10 mM glutamate + 12 µM compound, −60 mV, pH 7.4, 22 °C, mean ± SEM; for Amplitude (glutamate + compound) / A/AI (current with glutamate alone / current with glutamate + compound): n = 10; for A/AI (current with glutamate alone / current with glutamate + compound): 10 mM glutamate, 12 µM compound; for IC50: Hill fit; for t deact (weighted deactivation time constant) / t des (weighted desensitization time constant): glutamate + 12 µM compound; for t deact (weighted deactivation time constant): glutamate alone 2.2±0.1 ms; for t des (weighted desensitization time constant): glutamate alone 2.3±0.1 ms
T2 construct: expressed in transfected cells; host or cells: HEK293
Description: as §1, §2, §3, §4

[4] = target: T3, GluA1/2 AMPA receptor subunits (flip isoform) (Homo sapiens, UniProt P42261+P42262); experiment: Whole-cell patch-clamp electrophysiology, heteromeric GluA1/2 expressed in HEK293 cells; conditions: for Amplitude (glutamate + compound): 10 mM glutamate + 12 µM compound, −60 mV, pH 7.4, 22 °C, mean ± SEM; for Amplitude (glutamate + compound) / A/AI (current with glutamate alone / current with glutamate + compound): n = 10; for A/AI (current with glutamate alone / current with glutamate + compound): 10 mM glutamate, 12 µM compound; for IC50: Hill fit; for t deact (weighted deactivation time constant) / t des (weighted desensitization time constant): glutamate + 12 µM compound; for t deact (weighted deactivation time constant): glutamate alone 2.5±0.3 ms; for t des (weighted desensitization time constant): glutamate alone 5.3±0.4 ms
T3 construct: expressed in transfected cells; host or cells: HEK293
Description: as §1, §2, §3, §4

[5] = target: T4, GluA2/3 AMPA receptor subunits (flip isoform) (Homo sapiens, UniProt P42262+P42263); experiment: Whole-cell patch-clamp electrophysiology, heteromeric GluA2/3 expressed in HEK293 cells; conditions: for Amplitude (glutamate + compound): 10 mM glutamate + 12 µM compound, −60 mV, pH 7.4, 22 °C, mean ± SEM; for Amplitude (glutamate + compound) / A/AI (current with glutamate alone / current with glutamate + compound): n = 10; for A/AI (current with glutamate alone / current with glutamate + compound): 10 mM glutamate, 12 µM compound; for IC50: Hill fit; for t deact (weighted deactivation time constant) / t des (weighted desensitization time constant): glutamate + 12 µM compound; for t deact (weighted deactivation time constant): glutamate alone 2.4±0.3 ms; for t des (weighted desensitization time constant): glutamate alone 2.7±0.3 ms
T4 construct: expressed in transfected cells; host or cells: HEK293
Description: as §1, §2, §3, §4

[6] = whole-cell normalized peak amplitude, unit printed in the text, not in Table S6, read-out: IC50

T1 sequence (P42262 25-883 isoform P42262-2 limits assumed): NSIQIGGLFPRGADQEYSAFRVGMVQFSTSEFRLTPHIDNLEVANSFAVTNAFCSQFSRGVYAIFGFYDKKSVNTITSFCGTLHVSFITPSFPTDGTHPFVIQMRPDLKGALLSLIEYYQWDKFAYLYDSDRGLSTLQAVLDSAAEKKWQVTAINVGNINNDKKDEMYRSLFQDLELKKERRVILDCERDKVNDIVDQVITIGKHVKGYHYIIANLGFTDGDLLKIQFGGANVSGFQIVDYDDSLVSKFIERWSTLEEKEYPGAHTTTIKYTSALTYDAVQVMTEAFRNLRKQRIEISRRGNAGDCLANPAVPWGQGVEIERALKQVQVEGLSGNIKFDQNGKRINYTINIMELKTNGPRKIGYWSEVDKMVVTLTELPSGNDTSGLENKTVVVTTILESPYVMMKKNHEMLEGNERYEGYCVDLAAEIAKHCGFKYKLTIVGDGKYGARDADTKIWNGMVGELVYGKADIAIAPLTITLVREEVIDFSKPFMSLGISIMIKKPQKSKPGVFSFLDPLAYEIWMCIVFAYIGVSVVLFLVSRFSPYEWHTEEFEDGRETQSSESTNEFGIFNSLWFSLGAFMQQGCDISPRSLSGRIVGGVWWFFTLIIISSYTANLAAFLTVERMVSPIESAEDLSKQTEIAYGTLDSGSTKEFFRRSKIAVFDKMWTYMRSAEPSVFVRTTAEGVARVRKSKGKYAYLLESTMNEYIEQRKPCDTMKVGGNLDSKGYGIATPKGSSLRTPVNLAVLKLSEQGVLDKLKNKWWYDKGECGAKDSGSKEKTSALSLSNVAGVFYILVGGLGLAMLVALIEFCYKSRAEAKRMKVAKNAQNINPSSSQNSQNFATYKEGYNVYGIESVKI
T4 sequence (P42262 25-883 isoform P42262-2 limits assumed): as above
T4 sequence (P42263 29-894 isoform P42263-2 limits assumed): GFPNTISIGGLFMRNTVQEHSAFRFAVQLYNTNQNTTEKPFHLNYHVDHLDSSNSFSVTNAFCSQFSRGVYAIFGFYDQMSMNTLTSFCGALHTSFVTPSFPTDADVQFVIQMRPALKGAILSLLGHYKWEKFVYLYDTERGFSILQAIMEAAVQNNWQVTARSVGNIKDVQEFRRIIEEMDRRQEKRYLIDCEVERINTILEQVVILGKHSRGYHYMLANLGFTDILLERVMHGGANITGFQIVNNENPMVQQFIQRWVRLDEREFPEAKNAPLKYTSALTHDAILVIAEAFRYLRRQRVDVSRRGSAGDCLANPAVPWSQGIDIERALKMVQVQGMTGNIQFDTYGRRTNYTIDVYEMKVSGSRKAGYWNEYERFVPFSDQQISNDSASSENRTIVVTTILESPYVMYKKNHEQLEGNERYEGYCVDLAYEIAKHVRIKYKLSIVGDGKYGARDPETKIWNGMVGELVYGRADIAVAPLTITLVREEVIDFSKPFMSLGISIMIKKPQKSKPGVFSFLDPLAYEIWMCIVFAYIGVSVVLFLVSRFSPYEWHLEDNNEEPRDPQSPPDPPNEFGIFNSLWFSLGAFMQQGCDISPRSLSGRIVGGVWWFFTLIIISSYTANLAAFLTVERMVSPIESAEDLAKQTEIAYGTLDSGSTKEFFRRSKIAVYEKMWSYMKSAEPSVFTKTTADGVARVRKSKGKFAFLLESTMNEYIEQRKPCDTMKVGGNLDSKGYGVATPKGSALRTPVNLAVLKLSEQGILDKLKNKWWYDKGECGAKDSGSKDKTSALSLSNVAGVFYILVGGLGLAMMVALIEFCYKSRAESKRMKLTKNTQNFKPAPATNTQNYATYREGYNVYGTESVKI
T3 sequence (P42261 19-906 isoform P42261-2 limits assumed): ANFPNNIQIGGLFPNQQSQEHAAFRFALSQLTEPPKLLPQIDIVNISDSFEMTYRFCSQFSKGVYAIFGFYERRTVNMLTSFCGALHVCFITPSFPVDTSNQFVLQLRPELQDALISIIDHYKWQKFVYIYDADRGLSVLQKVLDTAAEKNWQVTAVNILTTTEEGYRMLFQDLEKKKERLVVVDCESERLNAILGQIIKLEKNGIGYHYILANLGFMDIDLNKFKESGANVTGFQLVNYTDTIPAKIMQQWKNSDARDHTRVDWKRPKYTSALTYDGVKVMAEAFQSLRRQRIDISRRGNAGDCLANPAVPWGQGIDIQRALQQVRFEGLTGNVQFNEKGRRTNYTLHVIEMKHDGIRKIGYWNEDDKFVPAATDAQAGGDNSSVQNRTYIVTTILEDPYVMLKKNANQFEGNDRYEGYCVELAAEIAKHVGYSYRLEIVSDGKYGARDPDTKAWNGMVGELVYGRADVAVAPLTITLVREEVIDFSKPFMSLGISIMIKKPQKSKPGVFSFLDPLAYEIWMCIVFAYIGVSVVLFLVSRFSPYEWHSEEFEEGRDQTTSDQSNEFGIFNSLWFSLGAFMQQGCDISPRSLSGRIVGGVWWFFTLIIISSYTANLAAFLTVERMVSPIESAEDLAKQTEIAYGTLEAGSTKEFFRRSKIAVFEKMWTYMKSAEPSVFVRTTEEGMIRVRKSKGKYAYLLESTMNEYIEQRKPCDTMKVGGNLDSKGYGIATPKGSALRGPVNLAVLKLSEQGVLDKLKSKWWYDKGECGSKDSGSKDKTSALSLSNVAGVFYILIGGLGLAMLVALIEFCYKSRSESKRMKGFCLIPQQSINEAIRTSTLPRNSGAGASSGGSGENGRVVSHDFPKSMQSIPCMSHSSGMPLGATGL
T3 sequence (P42262 25-883 isoform P42262-2 limits assumed): as the sequence (P42262 25-883 isoform P42262-2 limits assumed) above
T2 sequence (P42261 19-906 isoform P42261-2 limits assumed): as the sequence (P42261 19-906 isoform P42261-2 limits assumed) above

| Amplitude (glutamate + compound) [2] [pA] | A/AI (current with glutamate alone / current with glutamate + compound) [2] | IC50 ([2]; read-out: Log IC50 (converted)) [µM] | t deact (weighted deactivation time constant) [2] [ms] | IC50 [2, 6] [µM] | Amplitude (glutamate + compound) [3] [pA] | A/AI (current with glutamate alone / current with glutamate + compound) [3] | IC50 ([3]; read-out: Log IC50 (converted)) [µM] | t deact (weighted deactivation time constant) [3] [ms] | IC50 [3, 6] [µM] | Amplitude (glutamate + compound) [4] [pA] | A/AI (current with glutamate alone / current with glutamate + compound) [4] | IC50 ([4]; read-out: Log IC50 (converted)) [µM] | t deact (weighted deactivation time constant) [4] [ms] | IC50 [4, 6] [µM] | Structure (SMILES) | decrease in the peak current of the AMPARs [1] | increase of the rate of AMPA receptor deactivation (τw deact) [1] | t des (weighted desensitization time constant) [2] [ms] | t des (weighted desensitization time constant) [3] [ms] | t des (weighted desensitization time constant) [4] [ms] | further results |
| --- | --- | --- | --- | --- | --- | --- | --- | --- | --- | --- | --- | --- | --- | --- | --- | --- | --- | --- | --- | --- | --- |
| 124±19.0 | 10.22±0.8 | 3.63 | 10.4 ± 0.9 | 3.63 | 89±12.0 | 10.43±0.7 | 3.47 | 9.5 ± 0.5 | 3.47 | 60±9.0 | 10.32±1.0 | 3.55 | 10.1 ± 0.7 | 3.54 | O=C(CCCCC1CCSS1)OCCCO (stereo not drawn) [LA1, 1-Hydroxy-3-Lipo Ester] | about 10 fold | about 4 fold | 1.0 ± 0.06 | 0.8 ± 0.1 | 2.8 ± 0.3 | reduction in the rate of desensitization (τw des) [1]: 3–4 fold; IC50 [1]: 3.5 to 3.8 µM; Amplitude (glutamate + compound) [5]: 52±8.0 pA; A/AI (current with glutamate alone / current with glutamate + compound) [5]: 10.14±1.0; IC50 ([5]; read-out: Log IC50 (converted)): 3.8 µM; t deact (weighted deactivation time constant) [5]: 10.1 ± 0.6 ms; t des (weighted desensitization time constant) [5]: 1.2 ± 0.09 ms; IC50 [5, 6]: 3.8 µM |
| 112±17.0 | 11.16±0.7 | 3.55 | 10.9 ± 0.7 | 3.51 | 79±11.0 | 11.53±0.8 | 3.39 | 11.6 ± 0.7 | 3.35 | 57±8.0 | 11.34±0.9 | 3.39 | 11.1 ± 0.9 | 3.41 | O=C(CCCCC1CCSS1)OCCCO[N+](=O)[O-] (stereo not drawn) [LA2, 1-Nitrooxy–propane-3-lipoyl ester] | ~11 fold | approximately 5 fold | 0.8 ± 0.08 | 0.6 ± 0.1 | 2.7 ± 0.2 | reduction in the rate of desensitization (τw des) [1]: 3–4 fold; IC50 [1]: ~3.5 µM; Amplitude (glutamate + compound) [5]: 46±7.0 pA; A/AI (current with glutamate alone / current with glutamate + compound) [5]: 11.03±1.0; IC50 ([5]; read-out: Log IC50 (converted)): 3.63 µM; t deact (weighted deactivation time constant) [5]: 10.8 ± 0.9 ms; t des (weighted desensitization time constant) [5]: 0.9 ± 0.09 ms; IC50 [5, 6]: 3.61 µM |
| 155±25 | 7.91±0.7 | 4.37 | 7.7 ± 0.3 | 4.37 | 114±12.0 | 8.13±0.6 | 3.63 | 8.1 ± 0.4 | 3.59 | 81±12.0 | 8.05±0.8 | 4.37 | 7.9 ± 0.67 | 4.33 | O=C(CCCCC1CCSS1)OCCCCCCO[N+](=O)[O-] (stereo not drawn) [LA3, 1-Nitrooxy–Hexane-6-lipoyl ester] | roughly 8 fold | roughly 3 fold | 1.8 ± 0.04 | 1.7 ± 0.1 | 3.6 ± 0.2 | Amplitude (glutamate + compound) [5]: 71±14.0 pA; A/AI (current with glutamate alone / current with glutamate + compound) [5]: 7.84±0.9; IC50 ([5]; read-out: Log IC50 (converted)): 4.47 µM; t deact (weighted deactivation time constant) [5]: 7.6 ± 0.7 ms; t des (weighted desensitization time constant) [5]: 1.9 ± 0.1 ms; IC50 [5, 6]: 4.46 µM |
| 166±28 | 7.65±0.5 | 4.47 | 7.1 ± 0.4 | 4.47 | 121±18 | 7.79±0.5 | 4.17 | 7.5 ± 0.3 | 4.18 | 87±13.0 | 7.70±0.7 | 4.37 | 7.4 ± 0.4 | 4.41 | O=C(CCCCC1CCSS1)OCCCCCCO (stereo not drawn) [LA4, 1-Hydroxy-6-Lipoester] | roughly 8 fold | roughly 3 fold | 1.9 ± 0.07 | 1.8 ± 0.1 | 3.7 ± 0.3 | Amplitude (glutamate + compound) [5]: 72±15.0 pA; A/AI (current with glutamate alone / current with glutamate + compound) [5]: 7.58±0.7; IC50 ([5]; read-out: Log IC50 (converted)): 4.79 µM; t deact (weighted deactivation time constant) [5]: 6.9 ± 0.5 ms; t des (weighted desensitization time constant) [5]: 2.0 ± 0.1 ms; IC50 [5, 6]: 4.76 µM |
